Square brackets hold non-standard residues; d marks the D form. Ends that are not written are not given here. Peptide text beside a SMILES is read from it. * marks the point of attachment. X1 = N[C@@H](CS*)C(=O)N1CCN(c2cc3c(cc2F)c(=O)c(C(=O)O)cn3C2CC2)CC1; X2 = O=C(Cn1cc(CC(O)(Cn2cncn2)c2ccc(F)cc2F)nn1)*; Nle = CCCC[C@H](N)C(=O)O
Tests used:
HL60 [1] = experiment: Mitochondrial potential, DiOC6(3) flow cytometry in HL60; assay type: cell-based, human; conditions: HL60 stained with DIOC6(3)
Experimental: HL60 was incubated with 100 nM 3,3′-dihexyloxacarbocyanine iodide (DiOC6(3)) (Cat. D273, Thermo Fisher Scientific). Cells were stained under culture conditions for 15 min, washed with prewarmed PBS, and examined by Guava EasyCyte flow cytometer (Merck-Millipore, USA). The results of flow cytometry were analyzed with Flowing Software 2.5.1 (Turku Bioscience, Finland).

S. aureus = experiment: Switch of S. aureus asymmetric phosphatidylserine location (Annexin V / 7AAD); assay type: cell-based, Staphylococcus aureus; conditions: MIC concentrations, first hour to 6 h
Experimental: Bacterial cultures with an […], as utilized in bacteriostatic experiments (Ptaszyńska et al., 2019 [16, 48]), were plated on Petri dishes. Compounds were added at the MIC concentration to the test sample, while no compound was added to the negative control. After an appropriate incubation period (45 min, […]), samples were collected and promptly washed with PBS. The pellet was then suspended in 100 μL of annexin binding buffer (BioSource International, Camarillo, CA, USA), which included 0.25 μL of 7-AAD (7-aminoactinomycin D, 1 mg/mL, Sigma) and 1 μL of Annexin–FITC (Thermo Fisher, Waltham, MA, USA). Following the addition of 400 μL of annexin binding buffer, the samples were left in the dark for 15 min. Subsequently, the samples were placed on ice and immediately read by the Guava EasyCyte (Merck-Millipore, Burlington, MA, USA). Flow results were analyzed with the free online software https://floreada.io/ (accessed on 30 November 2023; the last update was carried out in June 2023).

HEK293 [2] = conditions: HEK293, CM-H2DCFDA, compound at 2-fold IC90
Experimental: (§7) Cell lines were cultured as mentioned above and seeded in Petri dishes (Falcon, Cary, NC, USA) in the amount of 25 × 10^3 per Φ35 dish. HEK293 cells were allowed to attach overnight. ROS generation potential was tested for selected compounds after 0.25, 0.5, 1, 3, 6, and 24 h of incubation. The CM-H2DCFDA molecular probe (Thermo Fisher Scientific, Waltham, MA, USA) at a final concentration of 1 µM was added 15 min before the analysis. After staining, HEK293 cells were trypsinized, harvested, and suspended in fresh media. The 7AAD (Cat. A9400, Sigma Aldrich) was added just before analysis. Analyses were carried out with a Guava EasyCyte flow cytometer (Merck-Millipore, USA). Flow cytometry data were processed with Flowing Software 2.5.1 (Turku Bioscience, Turku, Finland).

HL60 [3] = conditions: HL60, CM-H2DCFDA, compound at 2-fold IC90
Experimental: as §7

HEK293 [4] = experiment: MTT drug sensitivity assay on HEK293; assay type: cell-based, human; conditions: normalized to EC50
Experimental: (§1) As mentioned in [61], we followed detailed procedures, including the composition of media and growth conditions, for the application of conjugate 4 on both HL60 and HEK293 in the MTT drug sensitivity assay. The initial cellular density for cultures seeded in a 96-well plate was 5000 cells/well for HL60 and 1500 cells/well for HEK293.
(§2) Supplementary Table S1. […] 4. […]
(§3) of incubation; The initial cellular density for HL60 was 5,000 cells, and for HEK293, it was 1,500 cells […]
(§4) Supplementary Table S2. […] The conversion from IC50 to EC50 was performed following the method outlined in [62]; For IC50 values, please refer to Supplementary […]
(§5) For MIC and IC50 data, please also refer to Ptaszyńska et al., 2019. Abbreviations: S. e. - Staphylococcus epidermidis ATCC 12228; B. s. - Bacillus subtilis ATCC 6633; S. a. - Staphylococcus aureus ATCC 25923; P. a - Pseudomonas aeruginosa ATCC 27853; B. c - Bacillus cereus PCM 2003; C. k. - Candida krusei DSM 6128; C. p. - Candida parapsilosis DSM 5784; C. a. - Candida albicans ATCC 10231; C. g. - Candida glabrata DSM 11226; C. t. - Candida […]

A549 = experiment: Cell proliferation (EC50, selectivity index) on A549; assay type: cell-based, human; conditions: normalized to EC50
Experimental: (§6) To evaluate their effect on leukemia, cancer, and non-cancer cells, the Malignancy Selectivity Index was calculated as MSI = EC50 (non-cancerous)/EC50 (leukemic or cancerous) or EC50 (leukemic or cancerous)/EC50 (leukemic or cancerous).
as §2, §3, §4, §5

HL60 [5] = experiment: MTT drug sensitivity assay on HL60; assay type: cell-based, human; conditions: normalized to EC50
Experimental: as §1, §2, §3, §4, §5

Candida krusei DSM 6128 = conditions: C. krusei, relative to IC50 of HL60
BT20 = experiment: Cell proliferation (EC50, selectivity index) on BT20; assay type: cell-based, human; conditions: normalized to EC50
Experimental: as §6, §2, §3, §4, §5

How did the “Impact on mitochondrial potential” value (HL60 [1]) turn out when `CCCC[C@H](NC(=O)[C@H](CCCNC(=N)N)NC(=O)[C@H](Cc1c[nH]c2ccccc12)NC(=O)[C@H](CCC(N)=O)NC(=O)[C@H](Cc1c[nH]c2ccccc12)NC(=O)[C@H](CCCNC(=N)N)NC(=O)[C@H](CCCNC(=N)N)NC(=O)[C@H](CSSC[C@H](N)C(=O)N1CCN(c2cc3c(cc2F)c(=O)c(C(=O)O)cn3C2CC2)CC1)NC(=O)[C@H](CCCCN)NC(=O)[C@@H](N)Cc1ccccc1)C(N)=O` [conjugate 3] (H-FKC(X1)RRWQWR[Nle]-NH2; N-terminus assumed) was run?
Its value is “minimal impact”.

And the “Reduction in number of events (7AAD vs. Annexin V) compared to LfcinB” value (S. aureus)?
The value was “more pronounced”.

With `CSCC[C@H](NC(=O)[C@H](CCCNC(=N)N)NC(=O)[C@H](Cc1c[nH]c2ccccc12)NC(=O)[C@H](CCC(N)=O)NC(=O)[C@H](Cc1c[nH]c2ccccc12)NC(=O)[C@H](CCCNC(=N)N)NC(=O)[C@H](CCCNC(=N)N)NC(=O)[C@H](CS)NC(=O)[C@H](CCCCN)NC(=O)[C@H](Cc1ccccc1)NC(=O)Cn1cc(CC(O)(Cn2cncn2)c2ccc(F)cc2F)nn1)C(N)=O` (stereo partly shown) [conjugate 4] (X2-FKCRRWQWRM-NH2; N-terminus assumed) as the compound, how does the “Levels of cellular ROS” value (HEK293 [2]) read?
Its value is “negligible”.

What about the “Levels of cellular ROS” value (HL60 [3]) of the same compound?
The value was “negligible”.

Which results are given for “conjugate 1: covalently bonded LfcinB and LVX (FKCRRWQWRMKKLGAPSITCVRRAF; ends and bridges not checked; also: covalently bonded to levofloxacin, site not given here; UniProt P24627 36-60, looked up)”?
Malignancy Selectivity Index, HEK293 section, A549 column (HEK293 [4]; A549 vs HEK293): 0.2; Malignancy Selectivity Index, HEK293 section, BT20 column (HEK293 [4]; BT20 vs HEK293): 0.1; Malignancy Selectivity Index, A549 section, BT20 column (A549; BT20 vs A549): 0.3; Malignancy Selectivity Index, A549 section, HEK293 column (A549; HEK293 vs A549): 4.4; Malignancy Selectivity Index, A549 section, HL-60 column (A549; HL-60 vs A549): 0.1; Malignancy Selectivity Index, HL60 section, A549 column (HL60 [5]; A549 vs HL60): 8.9; Malignancy Selectivity Index, HL60 section, BT20 column (HL60 [5]; BT20 vs HL60): 3.0; Malignancy Selectivity Index, HL60 section, HEK293 column (HL60 [5]; HEK293 vs HL60): 39.4; FSI (Fungistatic Selectivity Index) (Candida krusei DSM 6128): 2.9; Malignancy Selectivity Index, BT20 section, A549 column (BT20; A549 vs BT20): 2.9; Malignancy Selectivity Index, BT20 section, HEK293 column (BT20; HEK293 vs BT20): 13.1; Malignancy Selectivity Index, BT20 section, HL-60 column (BT20; HL-60 vs BT20): 0.3

From PMC10856415, “Lactoferricin B Combined with Antibiotics Exhibits Leukemic Selectivity and Antimicrobial Activity” (Molecules, 2024)
